Laboratory results: patent publication US7202239B2, “Cyclohexylphenyl carboxamides tocolytic oxytocin receptor antagonists” (Wyeth, priority 2001, dated 2007)

Each compound was assayed against human V2 vasopressin receptor subtype (Homo sapiens, UniProt P30518) (assay: Vasopressin binding in CHO cell membranes expressing human vasopressin V2 subtype receptors). Details: 100 nM, [3H]arginine vasopressin.
Source text: Vasopressin Binding in Chinese Hamster Ovary Cell Membranes Expressing Human Vasopressin V2 Subtype Receptors
Chinese Hamster Ovary (CHO) cells stably transfected with the human V2 subtype receptors were obtained from M. Thibonnier, Case Western Reserve University School of Medicine, Cleveland, Ohio.
A. Passaging and Amplification of Cells:
CHO cells transfected with the human vasopressin V2 subtype receptors obtained from M. Thibonnier (pZeoSV vector) are allowed to grow to confluency (approx. >90%) in T-150 flasks under sterile conditions, in a cell culture medium of F-12 Nutrient Mixture (HAM) with L-glutamine (Gibco Cat. # 11765-054) containing 15 mM HEPES (Gibco Cat. # 15630-080), 1% antibiotic/antimycotic (add 5 mL 100×, Gibco Cat. # 15240-062 per 500 mL F-12), 250 μg/mL Zeocin (add 1.25 mL of 100 mg/mL Invitrogen R-250-01 per 500 mL F-12) and 10% Fetal Bovine Serum (Qualified, heat inactivated, Gibco Cat. # 16140-063). The medium is removed by aspiration and the cells washed with 10 mL of Hank's Balanced Salt solution (Gibco Cat. # 14175-095). The salt solution is removed by aspiration and the cells trypsinized with 5 mL of trypsin-EDTA (0.05% trypsin, 0.53 mM EDTA-4Na, Gibco Cat. # 25300-070) for 1 min. The trypsin is removed by aspiration and the cells dislodged by tapping. Cell Culture medium (e.g. 30 mL for 1:30 split) is immediately added and mixed well to inactivate trypsin. 1 mL of detached cells is added to new culture flasks containing fresh Cell Culture medium (e.g. into 25 mL per T-150 flask), and mixed gently. The cells are incubated at 37° C. in 5% CO2. The medium is changed at 3 to 4 day interval (or as appropriate). The cells grow to confluency (approx. >75%–95%) within 7–8 days. All steps are done under sterile conditions. B. Membrane Preparation: The cells are washed twice gently with Hank's Balanced Salt solution (e.g. use 10 mL per T-150 flask). The excess solution is removed and the cells bathed for 15–30 min. in an enzyme-free Cell Dissociation Buffer (e.g. use 8 mL Hank's Based, Gibco Cat. # 13150-016 per T-150 flask) until cells are loosened. The contents are transferred to centrifuge tubes (50 mL) kept in an ice bath. All subsequent steps are done at 4° C. The tubes are centrifuged at 300× g for 15 min (1380 rpm on SORVAL, Model RT6000D, using the rotor for 50 mL tubes). The supernatant is discarded and the cells suspended in homogeneizing buffer(10 mM Tris-HCl containing 0.25 M sucrose and 1 mM EDTA, pH 7.4) ensuring that the volume of the buffer is about ten times the volume of the cell pellet. The cells are pooled into a centrifuge tube (50 mL) and homogenized with a Polytron at setting 6 for 10 sec. The homogenate is transferred into a Potter-Elvjehm homogeneizer and homogenized with 3 strokes. The homogenate is centrifuged at 1500×g for 60 min at 4° C. (3100 rpm using SORVAL, model RT6000D, using the rotor for 50 mL tubes). The pellet is discarded. The supernatant is centrifuged at 100,000×g for 60 min. at 4° C. (Beckman L8-80M ultracentrifuge; spin at 37,500 rpm with rotor type 70 Ti for 50 mL tubes; 38,000 rpm with type 80Ti for 15 mL tubes; or 35,800 rpm with rotor type 45Ti). The supernantant is discarded and the pellet suspended in 3 to 4 mL of Tris buffer (50 mM TRIS-HCl, pH 7.4). The protein content is estimated by the Bradford or Lowry method. The volume of the membrane suspension is adjusted with the membrane buffer (50 mM Tris-HCl containing 0.1% BSA and 0.1 mM PMSF) to give 3.0 mg/mL (or as appropriate) of protein. The membranes are aliquoted and stored at −70° C. C. Radioligand Binding Assay: In wells of a 96-well format microtiter plate, is added 90, 110 or 130 μL (to make up a final volume of 200 μL) of assay buffer containing 50 mM of Tris-HCl (pH 7.4), […], 1 mg % aprotinin, 1 mg % leupeptin, 2 mg % 1,10-phenanthroline, 10 mg % trypsin inhibitor, and 0.1 mM PMSF. The inhibitors are added on the day of the experiment. […]

Sequence of human V2 vasopressin receptor subtype (P30518 whole entry): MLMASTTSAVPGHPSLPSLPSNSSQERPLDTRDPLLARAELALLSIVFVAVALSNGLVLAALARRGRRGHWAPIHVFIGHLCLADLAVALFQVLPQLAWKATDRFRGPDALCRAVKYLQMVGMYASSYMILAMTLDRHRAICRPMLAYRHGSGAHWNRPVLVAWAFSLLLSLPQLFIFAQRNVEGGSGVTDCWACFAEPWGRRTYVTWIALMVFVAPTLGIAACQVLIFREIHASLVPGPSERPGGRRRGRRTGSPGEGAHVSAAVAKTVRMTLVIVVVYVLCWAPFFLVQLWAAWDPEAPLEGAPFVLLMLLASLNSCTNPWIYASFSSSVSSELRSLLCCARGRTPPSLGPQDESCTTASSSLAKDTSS

Structure (SMILES) | V2 % inhibition at 100 nM | inhibition at 0.1 µM
CN1CCN(C(=O)C(=O)c2ccc3n2Cc2ccccc2N(C(=O)c2ccc(C4CCCCC4)cc2)C3)CC1 [Example 32, 1-[10-(4-Cyclohexyl-benzoyl)-10,11-dihydro-5H-pyrrolo[2,1-c][1,4]benzodiazepin-3-yl]-2-(4-methyl-1-piperazin-1-yl)-1,2-ethane-1,2-dione] | 6% | –
CN1CCCC1CCNC(=O)c1ccc2n1Cc1ccccc1N(C(=O)c1ccc(C3CCCCC3)cc1)C2 (stereo not shown) [Example 38, 10-(4-Cyclohexyl-benzoyl)-N-[2-(1-methyl-2-pyrrolidinyl)ethyl]-10,11-dihydro-5H-pyrrolo[2,1-c][1,4]benzodiazepine-3-carboxamide] | – | 1%
CN(Cc1cccnc1)C(=O)c1ccc2n1Cc1ccccc1N(C(=O)c1ccc(C3CCCCC3)cc1)C2 [Example 57, 10-(4-Cyclohexyl-benzoyl)-N-methyl-N-(3-pyridinylmethyl)-10,11-dihydro-5H-pyrrolo[2,1-c][1,4]benzodiazepine-3-carboxamide] | – | 4%
C=CCN1CCN(C(=O)c2ccc3n2Cc2ccccc2N(C(=O)c2ccc(C4CCCCC4)cc2)C3)CC1 [Example 43, (4-Allyl-1-piperazinyl)[10-(4-cyclohexyl-benzoyl)-10,11-dihydro-5H-pyrrolo[2,1-c][1,4]benzodiazepin-3-yl]methanone] | – | 8%
CC(C)N1CCN(C(=O)c2ccc3n2Cc2ccccc2N(C(=O)c2ccc(C4CCCCC4)cc2)C3)CC1 [Example 44, [10-(4-Cyclohexyl-benzoyl)-10,11-dihydro-5H-pyrrolo[2,1-c][1,4]benzodiazepin-3-yl](4-isopropyl-1-piperazinyl)methanone] | – | 1%
O=C(NCCN1CCCCC1)c1ccc2n1Cc1ccccc1N(C(=O)c1ccc(C3CCCCC3)cc1)C2 [Example 37, 10-(4-Cyclohexyl-benzoyl)-N-[2-(1-piperidinyl)ethyl]-10,11-dihydro-5H-pyrrolo[2,1-c][1,4]benzodiazepine-3-carboxamide] | – | 8%
O=C(c1ccc(C2CCCCC2)cc1)N1Cc2ccc(C(=O)C(Cl)(Cl)Cl)n2Cc2ccccc21 [Example 7, 2,2,2-Trichloro-1-[10-(4-cyclohexyl-benzoyl)-10,11-dihydro-5H-pyrrolo[2,1-c][1,4]benzodiazepin-3-yl]-1-ethanone] | – | 10%
CN(C)[C@@H]1CCN(C(=O)c2ccc3n2Cc2ccccc2N(C(=O)c2ccc(C4CCCCC4)cc2)C3)C1 [Example 47, [10-(4-Cyclohexyl-benzoyl)-10,11-dihydro-5H-pyrrolo[2,1-C][1,4]benzodiazepin-3-yl][(3R)-3-(dimethylamino)pyrrolidinyl]methanone] | 0% | –
CN(C)CCCNC(=O)c1ccc2n1Cc1ccccc1N(C(=O)c1ccc(C3CCCCC3)cc1)C2 [Example 33, 10-(4-Cyclohexyl-benzoyl)-N-[3-(dimethylamino)propyl]-10,11-dihydro-5H-pyrrolo[2,1-c][1,4]benzodiazepine-3-carboxamide] | – | 14%
O=C(NCCCn1ccnc1)c1ccc2n1Cc1ccccc1N(C(=O)c1ccc(C3CCCCC3)cc1)C2 [Example 36, 10-(4-Cyclohexyl-benzoyl)-N-[3-(1H-imidazol-1-yl)propyl]-10,11-dihydro-5H-pyrrolo[2,1-c][1,4]benzodiazepine-3-carboxamide] | – | 1%
O=C(c1ccc(C2CCCCC2)cc1)N1Cc2ccc(C(=O)N3CCC[C@H]3CN3CCCC3)n2Cc2ccccc21 [Example 46, [10-(4-Cyclohexyl-benzoyl)-10,11-dihydro-5H-pyrrolo[2,1-c][1.4]benzodiazepin-3-yl][(2S)-2-(1-pyrrolidinylmethyl)pyrrolidinyl]methanone] | 14% | –
O=C(c1ccc(C2CCCCC2)cc1)N1Cc2ccc(C(=O)n3ccnc3)n2Cc2ccccc21 [Example 56, 1H-Imidazol-1-yl-[10-(4-cyclohexyl-benzoyl)-10,11-dihydro-5H-pyrrolo[2,1-c][1,4]benzodiazepin-3-yl]-methanone] | – | -2%
O=C(NCc1ccccn1)c1ccc2n1Cc1ccccc1N(C(=O)c1ccc(C3CCCCC3)cc1)C2 [Example 50, 10-(4-Cyclohexyl-benzoyl)-N-(2-pyridinylmethyl)-10,11-dihydro-5H-pyrrolo[2,1-c][1,4]benzodiazepine-3-carboxamide] | – | 15%
CN(C)CCN(C)C(=O)c1ccc2n1Cc1ccccc1N(C(=O)c1ccc(C3CCCCC3)cc1)C2 [Example 34, 10-(4-Cyclohexyl-benzoyl)-N-[2-(dimethylamino)-ethyl]-N-methyl-10,11-dihydro-5H-pyrrolo[2,1-c][1,4]benzodiazepine-3-carboxamide] | – | 17%
O=C(NNC(=O)C1CC1)c1ccc2n1Cc1ccccc1N(C(=O)c1ccc(C3CCCCC3)cc1)C2 [Example 13, 10-(4-Cyclohexyl-benzoyl)-N′-(cyclopropylcarbonyl)-10,11-dihydro-5H-pyrrolo[2,1-c][1,4]benzodiazepine-3-carbonyl-hydrazide] | 18% | –
CN(C)/C=C/C(=O)c1ccc2n1Cc1ccccc1N(C(=O)c1ccc(C3CCCCC3)cc1)C2 [Example 20, (E)-1-[10-(4-Cyclohexyl-benzoyl)-10,11-dihydro-5H-pyrrolo[2,1-c][1,4]benzodiazepin-3-yl]-3-(dimethylamino)-2-propen-1-one] | – | 11%

Same assay, conditions: [3H]arginine vasopressin, value in parentheses

Structure (SMILES) | IC50
CC(=NNC(=O)c1ccc2n1Cc1ccccc1N(C(=O)c1ccc(C3CCCCC3)cc1)C2)N(C)C [Example 9, N′-{[10-(4-Cyclohexyl-benzoyl)-10,11-dihydro-5H-pyrrolo[2,1-c][1,4]benzodiazepin-3-yl]carbonyl}-N,N-dimethylethanehydrazonamide] | > 1000 nM
O=C(c1ccc2n1Cc1ccccc1N(C(=O)c1ccc(C3CCCCC3)cc1)C2)N1CCN(c2ncccn2)CC1 [Example 23] | > 1000 nM
CN(C)C=NNC(=O)c1ccc2n1Cc1ccccc1N(C(=O)c1ccc(C3CCCCC3)cc1)C2 [Example 10, N′-{[10-(4-Cyclohexyl-benzoyl)-10,11-dihydro-5H-pyrrolo[2,1-c][1.4]benzodiazepin-3-yl]carbonyl}-N,N-dimethylhydrazonoformamide] | 1160 nM
O=C(c1ccc2n1Cc1ccccc1N(C(=O)c1ccc(C3CCCCC3)cc1)C2)N1CCC(N2CCCC2)CC1 [Example 25, [10-(4-Cyclohexyl-benzoyl)-10,11-dihydro-5H-pyrrolo[2,1-c][1,4]benzodiazepin-3-yl][4-(1-pyrrolidinyl)-1-piperidinyl]methanone] | > 1000 nM
CC(=O)NNC(=O)c1ccc2n1Cc1ccccc1N(C(=O)c1ccc(C3CCCCC3)cc1)C2 [Example 11, N′-Acetyl-10-(4-cyclohexyl-benzoyl)-10,11-dihydro-5H-pyrrolo[2,1-c][1,4]benzodiazepine-3-carbonyl-hydrazide] | > 1000 nM
O=C(c1ccc2n1Cc1ccccc1N(C(=O)c1ccc(C3CCCCC3)cc1)C2)N1CCN(c2ccccn2)CC1 [Example 28, [10-(4-Cyclohexyl-benzoyl)-10,11-dihydro-5H-pyrrolo[2,1-c][1,4]benzodiazepine 3-yl][4-(2-pyridinyl)-1-piperazinyl]-methanone] | > 1000 nM
